{"source": "patent US8288426B2", "about": "“Pesticidal composition comprising fenamidone and an insecticide compound” (Bayer CropScience AG, priority 2006, dated 2012)", "assay_type_in_all_cases": "in vivo", "conditions_in_all_cases": "mortality", "key": {"Spodoptera frugiperda": {"tested_on": "Spodoptera frugiperda", "assay": "Spodoptera frugiperda - test (cabbage leaf dip, larvae)", "experimental": "(§1) To produce a suitable preparation of active compound, 1 part by weight of active compound is mixed with the stated amount of solvent and emulsifier, and the concentrate is diluted with emulsifier-containing water to the desired concentration.\nCabbage leaves (Brassica oleracea) are treated by being dipped into the preparation of the active compound of the desired concentration and are infested with larvae of the fall army worm (Spodoptera frugiperda) as long as the leaves are still moist.\n(§2) After the specified period of time, the mortality in % is determined. 100% means that all the caterpillars have been killed; 0% means that none of the caterpillars have been killed."}, "Spodoptera exigua": {"tested_on": "Spodoptera exigua", "assay": "Spodoptera exigua - test (cabbage leaf dip, larvae)", "experimental": "as §1\nCabbage leaves (Brassica oleracea) are treated by being dipped into the preparation of the active compound of the desired concentration and are infested with larvae of the beet army worm (Spodoptera exigua) as long as the leaves are still moist.\nas §2"}, "Plutella xylostella": {"tested_on": "Plutella xylostella", "assay": "Plutella xylostella - test (cabbage leaf dip, larvae)", "experimental": "as §1\nCabbage leaves (Brassica oleracea) are treated by being dipped into the preparation of the active compound of the desired concentration and are infested with larvae of the diamond back moth (Plutella xylostella) as long as the leaves are still moist.\nas §2"}}}
{"compound": "CSC1=N[C@@](C)(c2ccccc2)C(=O)N1Nc1ccccc1", "note": "[Fenamidone, fenamidone]", "values": [{"measurement": "Efficacy in % after 4d", "setting": "Spodoptera frugiperda; 200 ppm", "value": 0, "unit": "%"}, {"measurement": "Efficacy in % after 3d", "setting": "Spodoptera exigua; 100 ppm", "value": 0, "unit": "%"}, {"measurement": "Efficacy in % after 3d", "setting": "Spodoptera exigua; 200 ppm", "value": 0, "unit": "%"}, {"measurement": "Efficacy in % after 4d", "setting": "Plutella xylostella; 200 ppm, first part of Table A", "value": 35, "unit": "%"}, {"measurement": "Efficacy in % after 4d", "setting": "Plutella xylostella; 200 ppm, second part of Table A", "value": 65, "unit": "%"}, {"measurement": "Efficacy in % after 4d", "setting": "Plutella xylostella; 500 ppm, first part of Table A", "value": 75, "unit": "%"}]}
{"compound": "O=[N+]([O-])NC1=NCCN1Cc1ccc(Cl)nc1", "note": "[Imidacloprid, imidacloprid]", "values": [{"measurement": "Efficacy in % after 3d", "setting": "Spodoptera exigua; 20 ppm", "value": 0, "unit": "%"}, {"measurement": "Efficacy in % after 4d", "setting": "Plutella xylostella; 20 ppm, first part of Table A", "value": 5, "unit": "%"}]}
{"compound": "CN1COCN(Cc2cnc(Cl)s2)/C1=N\\[N+](=O)[O-]", "note": "[Thiamethoxam, thiamethoxam]", "values": [{"measurement": "Efficacy in % after 4d", "setting": "Plutella xylostella; 4 ppm, first part of Table A", "value": 0, "unit": "%"}]}
{"compound": "N#C/N=C1\\SCCN1Cc1ccc(Cl)nc1", "note": "[Thiacloprid, thiacloprid]", "values": [{"measurement": "Efficacy in % after 3d", "setting": "Spodoptera exigua; 100 ppm", "value": 10, "unit": "%"}]}
{"compound": "CN/C(=N\\[N+](=O)[O-])NCc1cnc(Cl)s1", "note": "[Clothianidin, clothianidin]", "values": [{"measurement": "Efficacy in % after 4d", "setting": "Spodoptera frugiperda; 4 ppm", "value": 0, "unit": "%"}, {"measurement": "Efficacy in % after 4d", "setting": "Plutella xylostella; 4 ppm, second part of Table A", "value": 0, "unit": "%"}]}
